In US20240352021A1 (DANA-FARBER CANCER INSTITUTE, INC., priority 2021, published 2024):
Read-outs that look alike come from different tables or passages of the source.

Experiments:
[1] = molecular target: EGFR L858R/C797S Ba/F3 cells (Homo sapiens, UniProt P00533, C797S/L858R, cells depend on it); test: Ba/F3 cell proliferation (Cell Titer Glo), EGFR L858R/C797S; assay type: cell-based, murine; conditions: 72 hours
Text: (§1) The EGFR mutant L858R Ba/F3 cells have been previously described (Zhou, W., et al. Nature 462, 2009, 1070-1074). The EGFR C797S and C775S mutations were introduced via site directed mutagenesis using the Quick Change Site-Directed Mutagenesis kit into a vector containing EGFR L858R mutation (Stratagene; La Jolla, CA) according to the manufacturer's instructions. All constructs were confirmed by DNA sequencing. The constructs were then shuttled into the retroviral vector JP1540 by either using the Cre-recombination system (Agilent Technologies, Santa Clara, CA) or the In-fusion HD Cloning kit (Takara Bio USA, Inc.; Mountain view, CA). Ba/F3 cells were then infected with retrovirus per standard protocols, as described previously (Zhou, et al, Nature 2009). Stable clones were obtained by selection in puromycin (2 μg/ml). All BaF/3 mutant cells were maintained in RPMI 1640 (Cellgro; Mediatech Inc., Herndon, CA) supplemented with 10% FBS, 100 units/mL penicillin, 100 units/mL streptomycin.
(§2) Growth and inhibition of growth was assessed by the Cell Titer Glo assay (Promega, Madison, WI) and was performed according to the manufacturer's instructions. The Cell Titer Glo assay is a luminescence-based method used to determine the number of viable cells based on quantitation of the ATP present, which is directly proportional to the amount of metabolically active cells present. Ba/F3 cells of different EGFR genotypes were exposed to compounds for 72 hours and the number of cells used per experiment was determined empirically as has been previously established (Zhou, et al., Nature 2009). All experimental points were set up in triplicates in 384-well plates. […] The curves were fitted using a non-linear regression model with a sigmoidal dose response.
(§3) Ba/F3 cells assay data are provided below in Table 5 and Table 6. For inhibitory activity against EGFR mutants, the following designations are used: <0.1 μM=A, 0.1 μM˜0.5 μM=B, 0.5 μM˜2.5 μM=C, ≥2.5 μM=D

[2] = molecular target: EGFR L858R (Homo sapiens, UniProt P00533, L858R); test: EGFR biochemical assay (headed HTRF-based; method describes Z'-LYTE), L858R; conditions: Table 4
Experimental: (§4) To measure the IC50 values of compounds herein against EGFR, a Z′-LYTE assay (ThermoFisher) was used. Briefly, 2.5 μL of different concentrations of the compounds in 4% DMSO were added to 5 μL kinase/peptide mixture in each well of a 384-well plate (Corning Cat. #3676). 2.5 μL of 4× ATP solution (4× ATP, 50 mM HEPES, pH 7.5, 0.01% BRIJ-35, 10 mM MgCl2, 1 mM EGTA) were added to each well. The plate was shaken for 30 seconds, and then incubated at room temperature for 60 minutes. 5 μL of a 1:100000 dilution of Development Reagent A was added to each well. The plate was then incubated for 60 mins at room temperature. 5 μL of the stop reagent was then added. The plate was subsequently read on a fluorescence plate reader, and the emissions ratio was calculated to determine the ratio of Ser/Thr 07 phosphorylated by the reaction. Emissions Ratio═Coumarin Emission (443 nm)/Flourescein Emission (520 nm).
(§5) HTRF-based EGFR assay data are provided below in Table 4.

[3] = molecular target: EGFR L858R/T790M (Homo sapiens, UniProt P00533, L858R/T790M); test: EGFR biochemical assay (headed HTRF-based; method describes Z'-LYTE), L858R/T790M; conditions: Table 4
Experimental: as §4, §5

[4] = molecular target: EGFR mutant L858R Ba/F3 cells (Homo sapiens, UniProt P00533, L858R, cells depend on it); test: Ba/F3 cell proliferation (Cell Titer Glo), EGFR L858R; assay type: cell-based, murine; conditions: 72 hours
Text: as §1, §2, §3

Chain of EGFR mutant L858R Ba/F3 cells (P00533 whole entry L858R): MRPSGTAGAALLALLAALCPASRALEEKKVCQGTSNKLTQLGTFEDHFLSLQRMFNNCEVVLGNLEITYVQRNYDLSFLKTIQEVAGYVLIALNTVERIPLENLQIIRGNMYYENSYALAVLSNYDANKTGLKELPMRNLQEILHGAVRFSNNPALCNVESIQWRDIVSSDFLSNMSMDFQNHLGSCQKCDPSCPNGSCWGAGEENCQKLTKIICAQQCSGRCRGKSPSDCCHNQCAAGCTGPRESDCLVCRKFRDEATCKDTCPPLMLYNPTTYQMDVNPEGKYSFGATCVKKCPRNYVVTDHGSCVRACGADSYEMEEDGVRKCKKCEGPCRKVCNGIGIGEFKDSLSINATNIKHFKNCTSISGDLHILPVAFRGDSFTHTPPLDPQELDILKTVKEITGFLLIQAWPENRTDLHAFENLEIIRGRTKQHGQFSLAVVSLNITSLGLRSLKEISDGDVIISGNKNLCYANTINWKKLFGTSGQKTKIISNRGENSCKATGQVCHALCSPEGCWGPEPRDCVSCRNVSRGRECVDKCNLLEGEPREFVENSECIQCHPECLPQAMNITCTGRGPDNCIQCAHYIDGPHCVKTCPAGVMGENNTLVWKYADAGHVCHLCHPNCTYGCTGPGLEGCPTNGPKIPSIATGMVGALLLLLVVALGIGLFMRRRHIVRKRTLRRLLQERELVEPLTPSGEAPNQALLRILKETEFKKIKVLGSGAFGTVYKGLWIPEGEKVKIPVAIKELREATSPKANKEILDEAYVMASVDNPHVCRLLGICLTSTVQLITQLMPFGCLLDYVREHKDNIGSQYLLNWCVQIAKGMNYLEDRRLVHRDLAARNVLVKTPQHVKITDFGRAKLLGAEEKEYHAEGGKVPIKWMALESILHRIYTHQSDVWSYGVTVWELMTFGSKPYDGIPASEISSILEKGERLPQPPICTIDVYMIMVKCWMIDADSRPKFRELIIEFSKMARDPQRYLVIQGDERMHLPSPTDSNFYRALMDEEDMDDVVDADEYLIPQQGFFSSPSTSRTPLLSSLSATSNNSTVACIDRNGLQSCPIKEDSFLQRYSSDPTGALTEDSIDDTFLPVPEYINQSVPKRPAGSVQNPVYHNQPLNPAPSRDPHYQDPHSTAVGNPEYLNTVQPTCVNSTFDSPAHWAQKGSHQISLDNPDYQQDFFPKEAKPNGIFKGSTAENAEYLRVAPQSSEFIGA
Chain of EGFR L858R (P00533 25-1210 L858R): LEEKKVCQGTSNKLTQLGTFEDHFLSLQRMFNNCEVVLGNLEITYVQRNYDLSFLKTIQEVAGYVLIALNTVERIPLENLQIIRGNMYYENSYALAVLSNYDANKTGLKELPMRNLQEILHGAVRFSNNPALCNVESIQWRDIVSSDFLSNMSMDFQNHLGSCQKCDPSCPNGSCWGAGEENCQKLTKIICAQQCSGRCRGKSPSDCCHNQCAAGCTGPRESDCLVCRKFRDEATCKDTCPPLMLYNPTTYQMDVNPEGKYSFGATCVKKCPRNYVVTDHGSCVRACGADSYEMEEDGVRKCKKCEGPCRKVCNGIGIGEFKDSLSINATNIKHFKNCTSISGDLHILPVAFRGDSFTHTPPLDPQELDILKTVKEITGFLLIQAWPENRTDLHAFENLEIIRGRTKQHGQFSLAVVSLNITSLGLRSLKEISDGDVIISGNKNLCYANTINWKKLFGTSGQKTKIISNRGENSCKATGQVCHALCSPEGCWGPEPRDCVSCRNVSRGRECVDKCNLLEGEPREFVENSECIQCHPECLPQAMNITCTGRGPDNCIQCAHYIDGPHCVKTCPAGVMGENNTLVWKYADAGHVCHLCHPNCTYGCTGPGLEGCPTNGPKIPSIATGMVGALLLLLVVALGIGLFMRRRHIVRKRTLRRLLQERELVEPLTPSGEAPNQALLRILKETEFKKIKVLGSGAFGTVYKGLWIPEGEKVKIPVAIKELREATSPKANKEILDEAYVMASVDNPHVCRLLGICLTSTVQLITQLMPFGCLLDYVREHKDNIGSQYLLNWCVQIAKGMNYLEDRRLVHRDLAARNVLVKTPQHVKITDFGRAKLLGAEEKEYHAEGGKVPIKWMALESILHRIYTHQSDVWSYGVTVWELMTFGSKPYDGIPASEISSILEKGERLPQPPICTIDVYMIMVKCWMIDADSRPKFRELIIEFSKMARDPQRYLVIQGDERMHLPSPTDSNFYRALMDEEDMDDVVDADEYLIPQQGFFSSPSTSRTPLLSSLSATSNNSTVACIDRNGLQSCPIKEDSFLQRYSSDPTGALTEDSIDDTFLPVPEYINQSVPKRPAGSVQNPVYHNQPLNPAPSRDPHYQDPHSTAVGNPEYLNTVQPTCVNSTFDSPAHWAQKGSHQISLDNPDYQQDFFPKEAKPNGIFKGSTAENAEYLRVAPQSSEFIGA
Chain of EGFR L858R/T790M (P00533 25-1210 T790M/L858R): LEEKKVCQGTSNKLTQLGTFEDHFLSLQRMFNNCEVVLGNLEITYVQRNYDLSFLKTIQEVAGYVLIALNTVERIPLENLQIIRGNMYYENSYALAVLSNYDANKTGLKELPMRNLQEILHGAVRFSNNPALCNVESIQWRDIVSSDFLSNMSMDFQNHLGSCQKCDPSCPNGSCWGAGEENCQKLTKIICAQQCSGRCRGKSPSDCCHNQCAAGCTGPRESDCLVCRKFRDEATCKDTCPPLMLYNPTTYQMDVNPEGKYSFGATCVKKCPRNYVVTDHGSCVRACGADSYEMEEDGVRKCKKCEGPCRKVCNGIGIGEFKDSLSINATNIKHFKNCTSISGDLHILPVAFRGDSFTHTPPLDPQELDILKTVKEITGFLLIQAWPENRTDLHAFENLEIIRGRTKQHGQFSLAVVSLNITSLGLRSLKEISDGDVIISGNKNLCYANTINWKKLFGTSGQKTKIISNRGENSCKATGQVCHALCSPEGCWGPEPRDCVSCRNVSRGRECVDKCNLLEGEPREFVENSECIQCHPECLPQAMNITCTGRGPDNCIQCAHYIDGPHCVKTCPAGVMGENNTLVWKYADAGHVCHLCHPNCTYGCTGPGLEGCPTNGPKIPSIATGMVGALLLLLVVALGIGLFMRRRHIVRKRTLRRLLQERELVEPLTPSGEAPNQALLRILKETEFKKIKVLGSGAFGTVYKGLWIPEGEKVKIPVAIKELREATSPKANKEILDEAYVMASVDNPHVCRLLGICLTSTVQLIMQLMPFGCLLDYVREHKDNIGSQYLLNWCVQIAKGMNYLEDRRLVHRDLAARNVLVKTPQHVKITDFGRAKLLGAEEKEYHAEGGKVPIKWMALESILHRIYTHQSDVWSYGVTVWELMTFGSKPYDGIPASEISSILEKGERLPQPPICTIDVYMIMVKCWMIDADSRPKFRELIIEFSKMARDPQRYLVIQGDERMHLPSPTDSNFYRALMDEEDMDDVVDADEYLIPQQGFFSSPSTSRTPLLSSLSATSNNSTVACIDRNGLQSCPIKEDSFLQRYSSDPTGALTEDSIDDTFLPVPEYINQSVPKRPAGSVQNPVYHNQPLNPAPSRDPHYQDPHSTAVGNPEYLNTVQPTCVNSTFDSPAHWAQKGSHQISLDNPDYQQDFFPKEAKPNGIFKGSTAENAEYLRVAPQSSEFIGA
Chain of EGFR L858R/C797S Ba/F3 cells (P00533 whole entry C797S/L858R, the tested form may be a part): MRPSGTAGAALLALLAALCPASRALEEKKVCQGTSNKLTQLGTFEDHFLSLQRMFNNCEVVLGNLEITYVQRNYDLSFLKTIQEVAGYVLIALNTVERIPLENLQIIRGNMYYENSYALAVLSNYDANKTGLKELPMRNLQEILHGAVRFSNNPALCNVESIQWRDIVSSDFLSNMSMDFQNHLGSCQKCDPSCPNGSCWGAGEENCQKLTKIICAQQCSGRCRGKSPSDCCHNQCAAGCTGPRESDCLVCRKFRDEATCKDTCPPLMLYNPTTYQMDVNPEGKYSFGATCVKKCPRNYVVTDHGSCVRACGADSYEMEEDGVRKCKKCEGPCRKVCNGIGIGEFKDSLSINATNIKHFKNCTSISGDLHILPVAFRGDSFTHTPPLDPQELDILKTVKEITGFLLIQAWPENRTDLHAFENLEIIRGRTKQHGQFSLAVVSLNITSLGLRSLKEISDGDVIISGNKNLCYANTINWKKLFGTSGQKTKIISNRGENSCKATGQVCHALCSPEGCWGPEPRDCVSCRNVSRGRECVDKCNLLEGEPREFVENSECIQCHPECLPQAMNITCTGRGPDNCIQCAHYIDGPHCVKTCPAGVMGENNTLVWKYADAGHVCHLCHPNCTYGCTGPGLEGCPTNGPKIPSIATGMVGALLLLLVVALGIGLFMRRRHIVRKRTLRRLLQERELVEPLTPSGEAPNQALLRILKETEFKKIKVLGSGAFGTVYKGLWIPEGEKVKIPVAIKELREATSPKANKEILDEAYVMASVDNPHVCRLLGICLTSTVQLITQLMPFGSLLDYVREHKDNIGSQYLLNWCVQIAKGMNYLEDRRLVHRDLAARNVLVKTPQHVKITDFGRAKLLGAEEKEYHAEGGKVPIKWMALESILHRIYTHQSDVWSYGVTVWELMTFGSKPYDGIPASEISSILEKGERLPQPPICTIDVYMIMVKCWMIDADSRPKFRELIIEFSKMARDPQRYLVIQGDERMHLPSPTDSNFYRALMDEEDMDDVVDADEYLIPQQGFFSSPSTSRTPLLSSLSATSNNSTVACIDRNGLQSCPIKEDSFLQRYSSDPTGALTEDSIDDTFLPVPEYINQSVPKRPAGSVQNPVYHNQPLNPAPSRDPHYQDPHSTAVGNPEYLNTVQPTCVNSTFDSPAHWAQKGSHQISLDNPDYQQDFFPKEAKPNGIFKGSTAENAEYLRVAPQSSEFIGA

Compound	GI50 ([1]; Table 6) [nM]	IC50 [2] [nM]	IC50 [3] [nM]	GI50 ([4]; Table 6, read-out: L858R BaF3) [nM]	GI50 ([1]; Table 5) [nM]	GI50 ([4]; Table 5, read-out: L858R BaF3) [nM]
C=CC(=O)N1CC[C@H](N2Cc3cnc(Nc4ccc(N5CCN(C)CC5)cc4)nc3N(C)C2=O)c2cccc(C)c21 [Compound 140, 1-methyl-7-[4-(4-methylpiperazin-1-yl)anilino]-S-[(4S)-8-methyl-1-prop-2-enoyl-3,4-dihydro-2H-quinolin-4-yl]-4H-pyrimido[4,5-d]pyrimidin-2-one]	< 100	0.97	> 1000	< 100		
C=CC(=O)N(C)c1ccccc1CN1Cc2cnc(Nc3ccc(N4CCN(C)CC4)cc3)nc2N(C)C1=O [Compound 139, N-methyl-N-[2-[[1-methyl-7-[4-(4-methylpiperazin-1-yl)anilino]-2-oxo-4H-pyrimido[4,5-d]pyrimidin-S-yl]methyl]phenyl]prop-2-enamide]	500 to 2500	> 1000	> 1000	100 to 500		
C=C(F)C(=O)N1CCC(N2Cc3cnc(Nc4cnn(CCO)c4)nc3-n3ccnc32)c2ccccc21 (stereo not shown) [001A]	≥ 2500	> 100	> 100	≥ 2500		
C=CC(=O)N1CC[C@H](N2Cc3cnc(Nc4ccc(N5CCN(C)CC5)cc4)nc3N(C)C2=O)C[C@@H]1CO [Compound 146, 3-[(2R,4S)-2-(hydroxymethyl)-1-prop-2-enoyl-4-piperidyl]-1-methyl-7-[4-(4-methylpiperazin-1-yl)anilino]-4H-pyrimido[4,5-d]pyrimidin-2-one]	≥ 2500	> 1000	> 1000	500 to 2500		
C=CC(=O)N1CCC(N2Cc3cnc(Nc4ccc(N5CCN(C)CC5)cc4)nc3N(C)C2=O)c2cccc(OC)c21 (single isomer, unassigned) [Compound 123]	≥ 2500	62.9	> 100	≥ 2500		
C=CC(=O)N1CCC(n2c(=O)c3cnc(Nc4cnn(CCO)c4)nc3n(C)c2=O)c2ccccc21 (stereo not drawn) [Compound 122, 7-[[1-(2-hydroxyethyl)pyrazol-4-yl]amino]-1-methyl-S-(1-prop-2-enoyl-3,4-dihydro-2H-quinolin-4-yl)pyrimido[4,5-d]pyrimidine-2,4-dione]	500 to 2500	> 100	> 100	100 to 500		
C=CC(=O)N1CC[C@@H](N2Cc3cnc(Nc4cnn(CCO)c4)nc3N(C)C2=O)c2cccc(OC)c21 (single isomer, unassigned) [Compound 117]	≥ 2500	> 100	> 100	≥ 2500		
[2H]C1(N2Cc3cnc(Nc4ccc(OCCN5CCCC5)cc4)nc3N(C)C2=O)CCN(C(=O)C=C)c2ccccc21 (stereo not shown) [Compound 128]	< 100	0.9	> 700	< 100		
C=C1CC[C@H]2C[C@@H](N3Cc4cnc(Nc5ccc(N6CCN(C)CC6)cc5)nc4N(C)C3=O)CCN2C1=O [Compound 157, 1-methyl-S-(7-methylene-6-oxo-2,3,4,8,9,9a-hexahydro-1 H-quinolizin-2-yl)-7-[4-(4-methylpiperazin-1-yl)anilino]-4H-pyrimido[4,5-d]pyrimidin-2-one]	≥ 2500	> 1000	> 1000	≥ 2500		
C=CC(=O)N1CCC(N2Cc3cnc(Nc4ccc(N5CCN(C)CC5)cc4)nc3N(C)C2=O)[C@@H](N)C1 (stereo in doubt) [Compound 149, rel-(3S,4S)—S-(3-amino-1-prop-2-enoyl-4-piperidyl)-1-methyl-7-[4-(4-methylpiperazin-1-yl)anilino]-4H-pyrimido[4,5-d]pyrimidin-2-one]	≥ 2500	> 1000	> 1000	≥ 2500		
C=CC(=O)N1CC[C@H](N2Cc3cnc(Nc4ccc(N5CCN(C)CC5)cc4)nc3N(C)C2=O)[C@H](N)C1 (relative stereo) [Compound 148, rel-(3R,4S)—S-(3-amino-1-prop-2-enoyl-4-piperidyl)-1-methyl-7-[4-(4-methylpiperazin-1-yl)anilino]-4H-pyrimido[4,5-d]pyrimidin-2-one]	≥ 2500	> 1000	> 1000	≥ 2500		
C=CC(=O)N1CCC(N2Cc3cnc(Nc4ccc(N5CCN(C)CC5)cc4)nc3N(C)C2=O)C(c2ccccc2)C1 (stereo not shown) [Compound 159]	≥ 2500	> 100	> 100	500 to 2500		
C=CC(=O)N1CCC(N2Cc3cnc(Nc4ccc(N5CCN(C)CC5)cc4)nc3N(CC(F)F)C2=O)c2cccc(OC)c21 (stereo not shown) [Compound 134, 3-(1-acryloyl-8-methoxy-1,2,3,4-tetrahydroquinolin-4-yl)-1-(2,2-difluoroethyl)-7-((4-(4-methylpiperazin-1-yl)phenyl)amino)-3,4-dihydropyrimido[4,5-d]pyrimidin-2(1H)-one]	100 to 500	38.9	> 1000	< 100		
C=CC(=O)N1CCC(N2Cc3cnc(Nc4ccc(N5CCN(C)CC5)cc4)nc3N(C)C2=O)c2cccc(OC)c21 (single isomer, unassigned) [Compound 124]		> 100	> 100	≥ 2500		
C=C(F)C(=O)N1CC[C@@H](N2Cc3cnc(Nc4cnn(CCO)c4)nc3N(C)C2=O)c2cccc(OC)c21 (single isomer, unassigned) [Compound 119]	≥ 2500	> 100	> 100	≥ 2500		
C=CC(=O)N1CC[C@H](N2Cc3cnc(Nc4ccc(CS(C)(=O)=O)cc4)nc3N(C)C2=O)c2cccc(C)c21 [Compound 144]	< 100	1.57	> 1000	< 100		
C=CC(=O)N1CCC(C)(N2Cc3cnc(Nc4cnn(CCO)c4)nc3N(C)C2=O)CC1 [Compound 125, 7-[[1-(2-hydroxyethyl)pyrazol-4-yl]amino]-1-methyl-S-(4-methyl-1-prop-2-enoyl-4-piperidyl)-4H-pyrimido[4,5-d]pyrimidin-2-one]	≥ 2500	> 100	> 100	≥ 2500		
C=CC(=O)N1CCC12CC(N1Cc3cnc(Nc4ccc(N5CCN(C)CC5)cc4)nc3N(C)C1=O)C2 (stereo not drawn) [Compound 142, 1-methyl-7-[4-(4-methylpiperazin-1-yl)anilino]-S-(1-prop-2-enoyl-1-azaspiro[3.3]heptan-6-yl)-4H-pyrimido[4,5-d]pyrimidin-2-one]	≥ 2500	> 1000	> 1000	500 to 2500		
C=CC(=O)N1CC[C@@H](N2Cc3cnc(Nc4ccc(N5CCN(C)CC5)cc4)nc3N(C)C2=O)c2cccc(O)c21 (single isomer, unassigned) [Compound 155]	100 to 500	12.3	85.7	< 100		
C=CC(=O)N1CC2CC1CC2N1Cc2cnc(Nc3ccc(N4CCN(C)CC4)cc3)nc2N(C)C1=O (stereo not drawn) [Compound 059, 1-methyl-7-[4-(4-methylpiperazin-1-yl)anilino]-S-(2-prop-2-enoyl-2-azabicyclo[2.2.1]heptan-5-yl)-4H-pyrimido[4,5-d]pyrimidin-2-one]	≥ 2500			≥ 2500		
C=CC(=O)Nc1ccccc1CN1Cc2cnc(Nc3ccc(N4CCN(C)CC4)cc3)nc2N(C)C1=O [Compound 001, N-(2-((1-methyl-7-((4-(4-methylpiperazin-1-yl)phenyl)amino)-2-oxo-1,4-dihydropyrimido[4,5-d]pyrimidin-S(2H)-yl)methyl)phenyl)acrylamide]					100 to 500	100 to 500
